Measurements taken from patent US7199154B2, “Nitric oxide releasing prodrugs of diaryl-2-(5h)-furanones as cyclooxygenase-2 inhibitors” (Merck Frosst Company, priority 2002, dated 2007).

Assays:
[1] = system: Paw Edema; assay: Rat paw edema assay (carrageenan); type: in vivo; settings: male Sprague-Dawley rats, 3 hr after carrageenan
Protocol: Male Sprague-Dawley rats (150–200 g) are fasted overnight and are given p.o., either vehicle (1% methocell) or a test compound in the morning. One hr later, a line drawn using a permanent marker at the level above the ankle in one hind paw to define the area of the paw to be monitored. The paw volume (VOh) is measured using a plethysmometer (Ugo-Basile, Italy) based on the principle of water displacement. The animals are then injected subplantarly with 50 ul of a 1% carrageenan solution in saline (sigma Chem) into the paw using an insulin syringe with a 25-gauge needle (i.e. 500 ug carrageenan per paw). Three hr later, the paw volume (V3h) is measured and the increases in paw volume (V3h−VOh) are calculated. Paw edema data are the compared with the vehicle-control group and percent inhibitions calculated taking the values in the control group as 100%. All treatment groups are coded to eliminate observer bias.

[2] = biological target: T1, microsomal human COX-1 (Homo sapiens, UniProt P23219); assay: Microsomal cyclooxygenase assay, COX-1; type: biochemical; settings: microsomal fraction, PGE2 by EIA; read-out: IC50 against microsomal human COX-1
T1 construct: from which microsomes are prepared for microsomal assays, are human osteosarcoma 143 cells; endogenous in cells; host or cells: human U-937 cells (microsomal fraction)
Protocol: (§1) Compounds are tested as inhibitors of cyclooxygenase activity in whole cell and microsomal cyclooxygenase assays. Both of these assays measure prostaglandin E2 (PGE2) synthesis in response to arachidonic acid, using a radioimmunoassay. Cells used for whole cell assays, and from which microsomes are prepared for microsomal assays, are human osteosarcoma 143 cells (which specifically express cyclooxygenase-2) and human U-937 cells (which specifically express cyclooxygenase-1). In these assays, 100% activity is defined as the difference between prostaglandin E2 synthesis in the absence and presence of arachidonate addition. IC50 values represent the concentration of putative inhibitor required to return PGE2 synthesis to 50% of that obtained as compared to the uninhibited control.
(§2) Cox microsomal fractions are prepared as previously described (Percival et al., Arch. Biochem. Biophys. (1994) 315:111–118). The enzyme reactions are performed in 50 mM KPi pH 8.0, 1 μM heme, 1 mM phenol supplemented with 10 μg/ml of each Cox-1 or Cox-2 microsomal fractions. 1 μl DMSO or test compound (100 fold stock concentrated in DMSO) are added to 100 μl buffer. The enzyme reaction is initiated 15 minutes later by the addition of 10 μl of 100 μM arachidonic acid. […] PGE2 levels are then determined by EIA (Assay Designs) using the manufacturer's instruction.

[3] = biological target: T2, microsomal human COX-2 (Homo sapiens, UniProt P35354); assay: Microsomal cyclooxygenase assay, COX-2; type: biochemical; settings: microsomal fraction, PGE2 by EIA; read-out: IC50 against microsomal human COX-2
T2 construct: from which microsomes are prepared for microsomal assays, are human osteosarcoma 143 cells; endogenous in cells; host or cells: human osteosarcoma 143 cells (microsomal fraction)
T2 sequence (P35354 18-604): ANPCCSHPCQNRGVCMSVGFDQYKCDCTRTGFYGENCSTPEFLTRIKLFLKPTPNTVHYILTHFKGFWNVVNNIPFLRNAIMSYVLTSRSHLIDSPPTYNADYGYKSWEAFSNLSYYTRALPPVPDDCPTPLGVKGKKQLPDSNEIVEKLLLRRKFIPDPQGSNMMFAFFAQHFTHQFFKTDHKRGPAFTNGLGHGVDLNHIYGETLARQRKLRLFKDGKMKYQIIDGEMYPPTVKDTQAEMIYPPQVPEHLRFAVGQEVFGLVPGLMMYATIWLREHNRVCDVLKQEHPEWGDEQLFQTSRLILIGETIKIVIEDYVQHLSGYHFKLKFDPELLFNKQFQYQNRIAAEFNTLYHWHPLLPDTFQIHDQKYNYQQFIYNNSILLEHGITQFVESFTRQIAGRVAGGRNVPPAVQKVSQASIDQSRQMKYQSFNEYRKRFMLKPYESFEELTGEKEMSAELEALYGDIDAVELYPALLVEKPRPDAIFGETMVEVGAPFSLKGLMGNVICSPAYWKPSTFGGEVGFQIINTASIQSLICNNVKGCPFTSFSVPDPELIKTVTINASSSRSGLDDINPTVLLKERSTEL
Protocol: as §1, §2

T1 sequence (P23219 24-599): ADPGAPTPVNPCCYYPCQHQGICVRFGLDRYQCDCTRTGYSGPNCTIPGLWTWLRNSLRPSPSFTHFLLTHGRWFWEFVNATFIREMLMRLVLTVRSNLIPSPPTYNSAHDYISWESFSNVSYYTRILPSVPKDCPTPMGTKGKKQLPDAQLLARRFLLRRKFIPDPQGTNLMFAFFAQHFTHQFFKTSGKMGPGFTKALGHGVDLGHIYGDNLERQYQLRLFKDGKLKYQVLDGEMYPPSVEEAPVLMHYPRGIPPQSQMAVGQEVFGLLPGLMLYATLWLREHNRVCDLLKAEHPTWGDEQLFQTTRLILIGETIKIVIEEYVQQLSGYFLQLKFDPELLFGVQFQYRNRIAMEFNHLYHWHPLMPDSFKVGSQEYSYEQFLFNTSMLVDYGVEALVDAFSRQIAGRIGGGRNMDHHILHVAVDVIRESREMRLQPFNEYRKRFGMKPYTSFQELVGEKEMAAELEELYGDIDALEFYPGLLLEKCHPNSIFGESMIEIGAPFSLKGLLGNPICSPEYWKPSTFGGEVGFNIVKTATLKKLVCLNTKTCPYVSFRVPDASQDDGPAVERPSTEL

Row | IC50 [2] [µM] | IC50 [3] [µM] | Structure (SMILES) | Paw Edema (% inhibition) ([1]; dose 1 mg/kg p.o.) [%] | Paw Edema (% inhibition) ([1]; dose 3 mg/kg p.o.) [%] | Paw Edema (% inhibition) ([1]; dose 10 mg/kg p.o.) [%] | Paw Edema (% inhibition) ([1]; dose 30 mg/kg p.o.) [%]
1 | – | – | COC(=O)/C(=C(\COC(=O)OCCCCO[N+](=O)[O-])c1ccc(S(C)(=O)=O)cc1)c1ccccc1 [Example 3, methyl (2Z)-3-[4-(methylsulfonyl)phenyl]-4-({[4-(nitrooxy)butoxy]carbonyl}oxy)-2-phenylbut-2-enoate] | 42 | 51 | 68 | 79
2 | > 100 | > 100 | CCOC(=O)/C(=C(\COC(=O)OCCCCCCO[N+](=O)[O-])c1ccc(S(C)(=O)=O)cc1)c1ccccc1 [Example 9, Ethyl (2Z)-3-[4-(methylsulfonyl)phenyl]-4-[({[6-(nitrooxy)hexyl]oxy}carbonyl)oxy]-2-phenylbut-2-enoate] | – | – | – | –
